Reference: patent publication US20230147744A1, “METHODS TO ENRICH ENTEROENDOCRINE CELLS AND THEIR SUBTYPES IN THE CONTIGUOUS, INTESTINAL MONOLAYER SYSTEMS” (The University of North Carolina at Chapel Hill, priority 2020, published 2023)
Where “and” joins values, the source holds several entries; their conditions need not be identical. Identical values can stand only once. One block for each compound: values may come before it.

Legend:
GLP-1+ L cells = experiment: Density of GLP-1+ L-cells on differentiated colonic monolayers; format: cell-based, human; conditions: for formation of L-cells: addition during differentiation, 4 days
Text: Enteroendocrine (EEC) cells within the intestinal epithelium consist of at least 15 different subtypes. Enterochromaffin (EC) cells are the most abundant subtype, comprising about 40% of EEC cells in the gastrointestinal tract. Besides EC cells, at least one other important EE subtype is L-cells, which are major regulators of the gut-brain interactions and are pivotal in regulating appetite and glucose homeostasis^4. L-cells co-secrete peptide hormones GLP-1 and PYY in response to the ingestion of food^5-8. GLP-1 stimulates the secretion of insulin from pancreatic β-cells^9,10, decreases gastric emptying and increases satiation^11. PYY slows GI motility and reduces food intake^12. Due to their important function as regulators of postprandial response to nutrients, L-cells are of specific interest in the field of obesity and diabetes^3-17. L-cells were also identified in the VIP-ALI cultured monolayers at a density of 12±2 mm^2 and constituted about 14% of the EE population (FIG. 7). However, the density of L-cells is still too low to perform a reliable functional assay of GLP-1/PYY secretion. Thus, further experiments were conducted to develop optimal protocols to enrich L-cells (see Example 7).
Experiments were conducted to systemically optimize four conditions to enrich L-cells: (1) ±ALI, (2) ±VIP, (3) R-spondin/Noggin ratio at 1:4, 1:1 and 4:1 in differentiation medium, (4) ±BIMU8 (a potent 5-HT4 agonist). The colonic stem cells were plated on a porous membrane coated with Matrigel and cultured for 3 days in growth factor-enriched medium until the cell monolayer reach confluence. Then the cells were differentiated for 4 days and the density of GLP-1^+ L cells was used as the readout (FIG. 8A). […] The R-spondin/Noggin ratio in differentiation medium also affected the density of L-cells, and the best result was obtained by using a ratio of 4/1. By using the conditions disclosed herein (ALI, VIP, R-spondin/Noggin=4/1, BIMU8), 137±12 cells/mm^2 GLP-1^+ L-cells were obtained, which is about 46 times higher than 3±2 cells/mm^2 in the previously used conditions (submerged, —VIP, R-spondin/Noggin=1/1, -BIMU8), and 11 times higher than 12±2 mm^2 in VIP-ALI culture (+ALI, +VIP, R-spondin/Noggin=1/1, -BIMU8).

[1] = system: colonic monolayers derived from human transverse colon; experiment: Monolayer barrier integrity (Papp, TEER); format: cell-based; conditions: VIP-assisted ALI culture, n=6
Text: Besides the elevated 5HT secretion, an additional advantage of VIP-assisted ALI culture is the improved barrier integrity (FIG. 4D). […] The cell respiration combined with the low diffusion rate of oxygen in the growth medium can lead to a reduced oxygen availability to the cells.^22 ALI culture can increase the oxygen availability, but the cells were stressed due to the complete dry up at the apical surface. […] Conversely, VIP-assisted ALI culture maintained a thin layer of fluid (about 0.4 mm thick) at the apical side, thus increasing the oxygen availability and at the same time as eliminating the stress from dry up. The high integrity of monolayers is needed to effectively segregates the apical and basal reservoirs to prevent the leakage of the stimulants and 5HT.

[2] = system: EEC (ChgA+) and EC (5HT+) cells; experiment: Number of EEC (ChgA+) and EC (5HT+) cells on monolayers by immunofluorescence staining; format: cell-based
Experimental: (§1) The fraction of EC among EEC remained in the range of 45-51% in these differentiation conditions, which is consistent with their fraction in the body that EC make up over 70% of the EEC population in the proximal colon and falls to around 40% in the rectum.^2 To test if the enriched EC cells increases 5HT secretion, the monolayers were stimulated with vehicle (DMSO) or forskolin (10 μM). […] The induction is 6.1× over the vehicle control (0.62±0.07 ng/mL). Therefore, the enriched EC cells improves the 5HT secretion assay by increasing the signal/background ratio.
It is likely that stem cells make lineage-fate decisions at the proliferation stage toward enterocytes and goblets cells, which are the major cell types in the intestinal epithelium. We can add signaling molecules, such as CHIR99021, to prevent the early lineage-fate decision and force the stem cells to stay at their ground state. CHIR99021 activates Wnt signaling by inhibition of GSK3. When the stem cells were cultured in EM under 3 μM CHIR99021 prior to conventional submerged culture in DM, the presence of EC cells was increased by almost 200% (FIGS. 11A and 11B). […] Besides CHIR99021, other Wnt activators (WAY316606, ABC99, IQ1, arylpyrimidine), and recombinant proteins of Wnt-3A and R-spondin (Wnt signaling enhancer) may be able to increase the formation of EC cells. We have not studied the synergistic effect of Wnt activator (in EM) and VIP-assisted ALI (in DM), but we expect the combination of both strategies will further increase the formation of EEC and EC cells.

[3] = system: EC cells in monolayers derived from human transverse colon stem cells; experiment: 5HT secretion assay (ELISA of basal medium) on stem-cell-derived colonic monolayers after apical stimulation; format: cell-based; conditions: for 5HT induction: pungent food ingredient screen, apical stimulation 4 h, EC-enriched monolayers, donor 2
[4] = system: EC cells in monolayers derived from human transverse colon stem cells; experiment: as above; format: cell-based
Text: Culture conditions for intestinal epithelial monolayer platform have been optimized in a previous publication, and the medium composition for yielding the maximal expression levels of EEC cell lineage marker gene ChgA was investigated.^11 Nicotinamide and p38 MAP kinase inhibitor (SB202190), two compounds commonly used in intestinal epithelial cell culture, are removed from medium due to their suppression of differentiation towards secretory cells. Inclusion of A 8301, a TGF-β receptor signaling inhibitor, is required for proper differentiation and cell morphology of monolayer cultures. Herein, the same medium composition was adopted and the in vitro monolayers were generated from stem cells derived from human transverse colon using the traditional submerged culture. The EEC (ChgA+) and EC (5HT+) cells presented at a density of 22±5 and 10±3 mm^−2, respectively (FIG. 2A, 2B). Accordingly, the total number of EC cells in a 96-well insert (surface area=11 mm^2) is 110±33. To test if the number of EC cells is enough for functional assays, the monolayers were stimulated with vehicle (dimethyl sulfoxide [DMSO]) or forskolin (10 μM) at the apical side for 4 h, and the released 5HT from the basal side was collected and quantified (FIG. 2C). Forskolin is a potent stimulus of 5HT release though activation of the cAMP-dependent pathway.^18 In three independent experiments, stimulated 5HT secretion by forskolin was 0.97±0.34, 0.88±0.28, and 0.60±0.23 ng/mL, respectively, corresponding to 3.6×, 2.1× and 2.4× induction over the vehicle controls (0.27±0.10, 0.42±0.18 ng/mL, and 0.25±0.07 respectively). Significant inter-experiment variability was observed due to high standard deviation of the 5HT measurements: the results in the first experiment were considered to be statistically non-significant (p>0.05, t-test), statistically significant (p<0.05) in the second one, but statistically non-significant (p>0.05) again in the third experiment. The high standard deviation came from a number of sources: error in 5HT measurement through enzyme-linked immunosorbent assay (ELISA), well-to-well variation, 5HT residue (mainly from the fetal bovine serum in the medium) left in the well, and 5HT that spontaneously leached out from the apoptotic ECs during assay. To improve the reliability of 5HT secretion assay and its signal/background ratio, the number of EEC and EC cells in monolayers need to be enriched.
as §1
As the generation and storage of 5HT inside granules of EC cells depends on the cell maturation, the level of 5HT secretion is affected by the differentiation length of the monolayers. To find out the optimal duration for differentiation, the monolayers were subjected to VIP-assisted ALI culture for 3-7 days. As expected, the forskolin stimulated 5HT secretion increased with differentiation length (due to cell maturation), so did the non-stimulated basal secretion (FIG. 4E). The barrier integrity was remained (Papp<4×10^−7 cm/s) for all samples, except for those under 7 days in differentiation in which the cells may start to undergo apoptosis (FIG. 4F). 5 days in differentiation was considered to be optimal since it generated monolayers with high 5HT induction (5.7×) and monolayer barrier integrity. This duration is coincident with life span of differentiated epithelium in human colon. Unless otherwise specified, 5 days were used for differentiation in this invention. […]

[5] = ALI, VIP, R-spondin/Noggin=4/1, BIMU8

Compound: vasoactive intestinal peptide [VIP]
L-cells as share of the EE population (GLP-1+ L cells; VIP-ALI cultured monolayers): about 14%
formation of L-cells (GLP-1+ L cells): increased the formation of L-cells
transepithelial electrical resistance (TEER) [1]: 842±166 ohms cm^2
number of EC compared with submerged culture ([2]; VIP added to submerged culture): 180%
number of EEC compared with submerged culture ([2]; VIP added to submerged culture): 177%
density of EC ([2]; combination of ALI and VIP): 43±9 mm^−2
density of EEC ([2]; combination of ALI and VIP): 83±11 mm^−2
number of EC compared with traditional submerged culture without VIP ([2]; combination of ALI and VIP): 430%
number of EEC compared with traditional submerged culture without VIP ([2]; combination of ALI and VIP): 377%

Compound: Cc1c[nH]c(-c2cnc(NCCNc3ccc(C#N)cn3)nc2-c2ccc(Cl)cc2Cl)n1 [CHIR99021]
increase of presence of EC cells ([2]; 3 μM CHIR99021 in EM prior to conventional submerged culture in DM): ~200%

Compound: CC(C)n1c(=O)n(C(=O)NC2CC3CCC(C2)N3C)c2ccccc21 (stereo not drawn) [BIMU8]
L-cell density, times higher than VIP-ALI culture (+ALI, +VIP, R-spondin/Noggin=1/1, -BIMU8) (GLP-1+ L cells; [5]): 11 times
L-cell density, times higher than previously used conditions (submerged, -VIP, R-spondin/Noggin=1/1, -BIMU8) (GLP-1+ L cells; [5]): about 46 times
GLP-1+ L-cells density (GLP-1+ L cells; ALI, VIP, R-spondin/Noggin=4/1, BIMU8, 4 days differentiation): 137±12 cells/mm^2
formation of L-cells (GLP-1+ L cells): increased the formation of L-cells

EC50 ([3]; Homo sapiens, dose-dependent stimulation of 5HT secretion, read-out: median effective dose (E50) for 5HT secretion): 51 µM
Compound: COc1cc(/C=C/C(=O)CC(=O)/C=C/c2ccc(O)c(OC)c2)ccc1O [curcumin]
5HT induction [3]: 7.3 ×

Compound: C=C[C@@]1(C)CC(=O)[C@]2(O)[C@@]3(C)[C@@H](O)CCC(C)(C)[C@@H]3[C@H](O)[C@H](OC(C)=O)[C@@]2(C)O1 [forskolin]
5HT induction [3]: 4.9 ×
5HT induction (forskolin/DMSO) ([4]; donor 1, 2, and 5): > 5.0
5HT induction (forskolin/DMSO) ([4]; donor 3 and 4): < 3.6
stimulated 5HT secretion ([4]; forskolin 10 μM apical 4 h, monolayers from traditional submerged culture, independent experiments): 0.97 ± 0.34 ng/mL and 0.88 ± 0.28 ng/mL and 0.60 ± 0.23 ng/mL and 0.97 ± 0.44 ng/mL
induction of 5HT secretion over the vehicle control ([4]; forskolin 10 μM apical 4 h, submerged culture, three independent experiments): 3.6 × and 2.1 × and 2.4 ×
induction of 5HT secretion over the vehicle control ([4]; forskolin 10 μM, VIP-assisted ALI culture): 6.1 ×
5HT secretion higher than that from submerged culture ([4]; forskolin 10 μM, VIP-assisted ALI vs submerged culture): 390%
5HT secretion under forskolin stimulation ([4]; forskolin 10 μM, monolayer from VIP-assisted ALI culture): 3.79 ± 0.57 ng/mL
5HT induction ([4]; forskolin, VIP-assisted ALI culture, 5 days in differentiation (duration study 3-7 days)): 5.7 ×
induction of 5HT secretion (forskolin/DMSO) ([4]; stem cell passage numbers 7, 9, 11, 13 and 15): 4.1-5.7 ×

Compound: O=CC=Cc1ccccc1 [Cinnamaldehyde]
5HT induction [3]: 1.8 ×
